Reference: ChEMBL document CHEMBL1909046, “DrugMatrix in vitro pharmacology data”

Assays:
[1] = target: Protein phosphatase 3 catalytic subunit alpha (Homo sapiens, UniProt Q08209); set-up: species or system Escherichia coli;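 note: inhibition of calcineurin (PP2B) enzyme activity, measured with DiFMUP as the substrate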
[2] = target: T1, Muscarinic acetylcholine receptor M4 (Homo sapiens, UniProt P08173); format: cell membranes, CHO-K1, Membrane
T1 sequence (P08173 whole entry): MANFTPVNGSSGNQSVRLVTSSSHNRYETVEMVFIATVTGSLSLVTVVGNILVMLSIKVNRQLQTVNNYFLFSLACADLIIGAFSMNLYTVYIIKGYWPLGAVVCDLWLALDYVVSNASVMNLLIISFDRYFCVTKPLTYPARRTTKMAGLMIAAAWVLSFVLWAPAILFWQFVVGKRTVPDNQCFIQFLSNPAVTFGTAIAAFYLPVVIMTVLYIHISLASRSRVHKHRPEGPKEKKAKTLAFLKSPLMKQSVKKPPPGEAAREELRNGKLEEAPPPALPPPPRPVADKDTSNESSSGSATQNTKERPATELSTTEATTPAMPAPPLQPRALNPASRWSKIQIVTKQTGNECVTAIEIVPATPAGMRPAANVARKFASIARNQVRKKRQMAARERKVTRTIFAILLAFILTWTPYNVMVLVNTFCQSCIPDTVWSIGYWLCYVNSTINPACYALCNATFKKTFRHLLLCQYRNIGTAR

[3] = target: T2, Neuropeptide Y receptor type 1 (Homo sapiens, UniProt P25929); format: cell membranes, Membrane; conditions: sk-n-mc
T2 sequence (P25929 whole entry): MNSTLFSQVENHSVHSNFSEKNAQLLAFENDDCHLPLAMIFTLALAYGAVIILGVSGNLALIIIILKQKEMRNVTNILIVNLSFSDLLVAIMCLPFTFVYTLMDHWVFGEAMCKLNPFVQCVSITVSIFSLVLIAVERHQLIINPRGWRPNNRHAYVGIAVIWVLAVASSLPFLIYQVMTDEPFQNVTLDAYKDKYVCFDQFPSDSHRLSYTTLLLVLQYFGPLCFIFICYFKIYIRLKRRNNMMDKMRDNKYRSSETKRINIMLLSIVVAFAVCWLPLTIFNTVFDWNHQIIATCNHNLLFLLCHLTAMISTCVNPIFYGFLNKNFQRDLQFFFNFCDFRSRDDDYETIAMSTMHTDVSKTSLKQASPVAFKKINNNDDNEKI

[4] = target: T3, Muscarinic acetylcholine receptor M5 (Homo sapiens, UniProt P08912); format: cell membranes, CHO-K1, Membrane
T3 sequence (P08912 whole entry): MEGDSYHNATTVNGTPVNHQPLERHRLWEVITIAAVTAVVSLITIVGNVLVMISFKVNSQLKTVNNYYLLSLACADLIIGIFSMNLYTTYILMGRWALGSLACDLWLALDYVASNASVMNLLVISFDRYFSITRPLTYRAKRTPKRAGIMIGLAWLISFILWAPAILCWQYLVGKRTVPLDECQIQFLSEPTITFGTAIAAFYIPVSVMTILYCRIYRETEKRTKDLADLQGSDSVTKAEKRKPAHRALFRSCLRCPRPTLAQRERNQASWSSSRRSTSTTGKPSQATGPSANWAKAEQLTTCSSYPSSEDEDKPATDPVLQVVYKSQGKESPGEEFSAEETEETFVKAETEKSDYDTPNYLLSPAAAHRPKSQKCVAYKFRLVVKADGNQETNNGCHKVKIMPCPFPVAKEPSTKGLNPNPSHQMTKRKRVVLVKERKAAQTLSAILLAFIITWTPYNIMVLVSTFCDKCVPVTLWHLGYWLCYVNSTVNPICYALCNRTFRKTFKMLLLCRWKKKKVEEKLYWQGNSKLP

[5] = target: Tyrosine-protein kinase Fyn (Homo sapiens, UniProt P06241); experiment: biochemical; format: cell-based, Insect cells;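 note: enzymatic inhibition of Fyn kinase activity measured with Poly(Glu:Tyr) as the phosphorylation substrate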
[6] = target: T4, 3-hydroxy-3-methylglutaryl-coenzyme A reductase (Homo sapiens, UniProt P04035); set-up: species or system Escherichia coli;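 note: enzyme inhibition assay of HMG-CoA reductase using radiolabeled [14C]HMG-CoA as substrate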
T4 sequence (P04035 whole entry): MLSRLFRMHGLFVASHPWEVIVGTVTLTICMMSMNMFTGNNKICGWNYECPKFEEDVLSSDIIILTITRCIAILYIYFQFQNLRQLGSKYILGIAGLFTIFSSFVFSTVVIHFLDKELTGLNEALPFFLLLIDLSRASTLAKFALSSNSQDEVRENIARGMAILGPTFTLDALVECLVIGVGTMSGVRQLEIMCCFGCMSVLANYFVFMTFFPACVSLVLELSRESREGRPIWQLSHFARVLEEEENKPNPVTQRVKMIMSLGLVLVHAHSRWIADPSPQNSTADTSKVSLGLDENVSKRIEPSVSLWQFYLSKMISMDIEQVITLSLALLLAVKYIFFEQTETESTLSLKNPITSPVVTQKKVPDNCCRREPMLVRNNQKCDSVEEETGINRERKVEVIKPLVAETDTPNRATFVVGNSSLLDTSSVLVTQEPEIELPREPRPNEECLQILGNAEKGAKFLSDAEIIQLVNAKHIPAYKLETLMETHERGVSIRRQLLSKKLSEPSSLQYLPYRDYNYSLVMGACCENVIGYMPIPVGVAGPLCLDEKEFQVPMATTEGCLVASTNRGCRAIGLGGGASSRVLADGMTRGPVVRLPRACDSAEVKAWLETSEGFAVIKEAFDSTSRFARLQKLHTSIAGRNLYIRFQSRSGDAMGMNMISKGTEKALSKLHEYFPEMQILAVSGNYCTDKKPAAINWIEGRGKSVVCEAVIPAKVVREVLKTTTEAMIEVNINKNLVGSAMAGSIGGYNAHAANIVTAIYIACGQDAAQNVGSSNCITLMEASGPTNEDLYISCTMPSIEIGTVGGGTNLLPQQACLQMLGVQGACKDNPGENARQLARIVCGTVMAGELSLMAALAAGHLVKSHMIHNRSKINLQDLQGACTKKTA

[7] = target: T5, Alpha-2A adrenergic receptor (Homo sapiens, UniProt P08913); format: cell membranes, Sf9, Membrane
T5 sequence (P08913 whole entry): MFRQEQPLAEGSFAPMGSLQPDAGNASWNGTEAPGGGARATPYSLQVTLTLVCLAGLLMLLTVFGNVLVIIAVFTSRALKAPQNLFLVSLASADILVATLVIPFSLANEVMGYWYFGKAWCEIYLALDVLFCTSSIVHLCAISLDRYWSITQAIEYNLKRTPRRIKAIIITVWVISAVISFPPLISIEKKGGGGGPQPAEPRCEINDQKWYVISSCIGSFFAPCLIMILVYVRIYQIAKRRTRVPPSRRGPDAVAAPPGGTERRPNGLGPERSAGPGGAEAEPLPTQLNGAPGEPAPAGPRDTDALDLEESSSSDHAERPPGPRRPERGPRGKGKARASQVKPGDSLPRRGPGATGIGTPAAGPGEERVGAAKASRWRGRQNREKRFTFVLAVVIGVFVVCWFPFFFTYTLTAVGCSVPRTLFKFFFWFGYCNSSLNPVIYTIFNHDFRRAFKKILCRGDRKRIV
Note: in other assays of this panel Not Active means under 50% inhibition at 10 µM.

Chain of Tyrosine-protein kinase Fyn (P06241 whole entry): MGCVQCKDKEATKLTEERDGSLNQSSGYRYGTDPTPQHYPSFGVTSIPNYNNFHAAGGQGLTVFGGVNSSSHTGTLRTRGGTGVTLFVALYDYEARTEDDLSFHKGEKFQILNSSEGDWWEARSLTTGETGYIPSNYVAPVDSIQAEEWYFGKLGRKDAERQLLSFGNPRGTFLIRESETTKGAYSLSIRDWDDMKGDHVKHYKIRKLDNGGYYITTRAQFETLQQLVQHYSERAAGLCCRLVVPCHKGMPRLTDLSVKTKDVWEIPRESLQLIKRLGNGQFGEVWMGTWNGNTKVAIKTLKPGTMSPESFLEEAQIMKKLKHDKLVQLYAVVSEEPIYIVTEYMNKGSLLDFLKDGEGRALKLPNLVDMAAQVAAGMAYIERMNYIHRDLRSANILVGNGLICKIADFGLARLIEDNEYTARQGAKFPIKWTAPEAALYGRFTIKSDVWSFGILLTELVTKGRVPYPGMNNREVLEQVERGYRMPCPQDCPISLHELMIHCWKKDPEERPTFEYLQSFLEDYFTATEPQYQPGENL

CC1=C(CC(=O)O)c2cc(F)ccc2/C1=C\c1ccc([S+](C)[O-])cc1 (stereo not given)
IC50 [1]: Not Active | IC50 ([2]; cho-k1): Not Active | IC50 [3]: Not Active | IC50 ([4]; cho-k1): Not Active | IC50 ([5]; insect cells): Not Active | IC50 [6]: Not Active | IC50 ([7]; sf9): Not Active

N[C@H](CSC(=S)NCc1ccccc1)C(=O)O
IC50 [1]: Not Active | IC50 ([2]; cho-k1): Not Active | IC50 [3]: Not Active | IC50 ([4]; cho-k1): Not Active | IC50 ([5]; insect cells): Not Active | IC50 [6]: Not Active | IC50 ([7]; sf9): Not Active

CC(=O)N[C@@H]1[C@H](Oc2c3cc4cc2Oc2ccc(cc2Cl)[C@@H](O[C@@H]2O[C@@H](CO)[C@@H](O)[C@H](O)[C@@H]2NC(C)=O)[C@@H]2NC(=O)[C@H](NC(=O)[C@@H]4NC(=O)[C@H]4NC(=O)[C@@H](Cc5ccc(c(Cl)c5)O3)NC(=O)[C@H](N)c3ccc(O)c(c3)Oc3cc(O)cc4c3)c3ccc(O)c(c3)-c3c(O[C@H]4O[C@H](CO)[C@@H](O)[C@@H](O)[C@@H]4O)cc(O)cc3[C@@H](C(=O)O)NC2=O)O[C@@H](CO)[C@@H](O)[C@@H]1O
IC50 [1]: Not Active | IC50 ([2]; cho-k1): Not Active | IC50 [3]: Not Active | IC50 ([4]; cho-k1): Not Active | IC50 ([5]; insect cells): Not Active | IC50 [6]: Not Active | IC50 ([7]; sf9): Not Active

Clc1ccc2c(c1)C(N1CCNCC1)=Nc1ccccc1O2 [AMOXAPINE]
IC50 [1]: Not Active | IC50 [3]: Not Active | IC50 ([5]; insect cells): Not Active | IC50 [6]: Not Active

COc1cc2c(c(OC)c1OC)-c1ccc(OC)c(=O)cc1[C@@H](NC(C)=O)CC2 [COLCHICINE]
IC50 [1]: Not Active | IC50 ([2]; cho-k1): Not Active | IC50 [3]: Not Active | IC50 ([4]; cho-k1): Not Active | IC50 ([5]; insect cells): Not Active | IC50 [6]: Not Active | IC50 ([7]; sf9): Not Active

CN1CCC(=C2c3ccccc3C=Cc3ccccc32)CC1 [CYPROHEPTADINE]
IC50 [1]: Not Active | IC50 ([2]; read-out: IC50): 16 nM | Ki ([2]; read-out: Ki): 2.19 nM | IC50 [3]: Not Active | IC50 ([4]; read-out: IC50): 3.83 nM | Ki ([4]; read-out: Ki): 2.75 nM | IC50 ([5]; insect cells): Not Active | IC50 [6]: Not Active

CC/C(=C(/CC)c1ccc(O)cc1)c1ccc(O)cc1 [DIETHYLSTILBESTROL]
IC50 [1]: Not Active | IC50 ([2]; cho-k1): Not Active | IC50 [3]: Not Active | IC50 ([5]; read-out: IC50): 14200 nM | IC50 [6]: Not Active

CC(=O)N1CCN(c2ccc(OCC3COC(Cn4ccnc4)(c4ccc(Cl)cc4Cl)O3)cc2)CC1 (stereo not given) [KETOCONAZOLE]
IC50 [1]: Not Active | IC50 ([2]; cho-k1): Not Active | IC50 [3]: Not Active | IC50 ([4]; cho-k1): Not Active | IC50 ([5]; insect cells): Not Active | IC50 [6]: Not Active | IC50 ([7]; read-out: IC50): 19800 nM | Ki ([7]; read-out: Ki): 7420 nM

C=CCN1CC[C@]23c4c5ccc(O)c4O[C@H]2C(=O)CC[C@@]3(O)[C@H]1C5 [NALOXONE]
IC50 [1]: Not Active | IC50 ([2]; cho-k1): Not Active | IC50 [3]: Not Active | IC50 ([4]; cho-k1): Not Active | IC50 ([5]; insect cells): Not Active | IC50 [6]: Not Active | IC50 ([7]; sf9): Not Active
